Among the data in patent US12497394B2, “Fused-cyclic pyrazolone formamide compound and preparation method therefor, pharmaceutical composition and use thereof” (SHANGHAI INSTITUTE OF MATERIA MEDICA, CHINESE ACADEMY OF …, priority 2018, dated 2025) are inhibition values, retold here.

One may read the inhibition as the change of the read-out against control, counted positive when it falls. Low readings indicate little suppression, high ones strong suppression.

The structures appear in SMILES notation.

Holding throughout (assay type): biochemical
Details in all cases: 50 nM

The target in one experiment is IRR/INSRR (Homo sapiens, UniProt P14616). Description: Kinase profile screen: IRR/INSRR. The source says:
(§1) Experimental Example 2: Study on the Selectivity of the Kinase Profile of the Compound Due to compound's potent inhibitory activity against AXL, we selected one of the compounds, DC621044, to screen 369 kinase profiles in order to investigate the compound's selectivity to the kinase profile.

The next experiment addresses FGR (Homo sapiens, UniProt P09769). Briefly: Kinase profile screen: FGR.
Excerpt: as §1

The target of a further experiment is MER (Homo sapiens, UniProt Q12866). Description: Kinase profile screen: MER.
Excerpt: as §1

The target in another experiment is BRK (Homo sapiens, UniProt Q13882). Description: Kinase profile screen: BRK.
Excerpt: as §1

The next experiment has as its target c-Src (Homo sapiens, UniProt P12931). Description: Kinase profile screen: c-Src.
Excerpt: as §1

For another experiment, the target named is AXL (Homo sapiens, UniProt P30530). Description: Kinase profile screen: AXL.
Excerpt: as §1

A further experiment deals with EPHA6 (Homo sapiens, UniProt Q9UF33). Description: Kinase profile screen: EPHA6.
Excerpt: as §1

The target of another experiment is MLK2/MAP3K10 (Homo sapiens, UniProt Q02779). Description: Kinase profile screen: MLK2/MAP3K10.
Excerpt: as §1

The next experiment concerns the target BLK (Homo sapiens, UniProt P51451). Briefly: Kinase profile screen: BLK.
Excerpt: as §1

In a further experiment the target is LCK (Homo sapiens, UniProt P06239). Description: Kinase profile screen: LCK.
Excerpt: as §1

The target of the next experiment is FRK/PTK5 (Homo sapiens, UniProt P42685). Briefly: Kinase profile screen: FRK/PTK5.
Excerpt: as §1

FGR, sequence (P09769 whole entry, species assumed): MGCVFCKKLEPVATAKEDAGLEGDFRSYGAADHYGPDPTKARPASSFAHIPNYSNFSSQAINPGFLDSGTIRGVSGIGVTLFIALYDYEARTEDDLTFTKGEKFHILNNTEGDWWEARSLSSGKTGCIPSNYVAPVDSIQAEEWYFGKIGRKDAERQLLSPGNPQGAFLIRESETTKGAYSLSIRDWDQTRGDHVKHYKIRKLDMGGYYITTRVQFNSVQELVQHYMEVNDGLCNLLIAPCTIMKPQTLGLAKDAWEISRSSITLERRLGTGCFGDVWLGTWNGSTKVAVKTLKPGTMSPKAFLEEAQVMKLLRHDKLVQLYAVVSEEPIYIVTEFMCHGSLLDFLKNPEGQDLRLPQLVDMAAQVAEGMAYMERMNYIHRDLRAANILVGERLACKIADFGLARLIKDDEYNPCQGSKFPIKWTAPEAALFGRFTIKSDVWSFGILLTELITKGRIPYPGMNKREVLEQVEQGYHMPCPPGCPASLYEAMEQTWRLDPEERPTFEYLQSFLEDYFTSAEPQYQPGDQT
BLK, sequence (P51451 whole entry, species assumed): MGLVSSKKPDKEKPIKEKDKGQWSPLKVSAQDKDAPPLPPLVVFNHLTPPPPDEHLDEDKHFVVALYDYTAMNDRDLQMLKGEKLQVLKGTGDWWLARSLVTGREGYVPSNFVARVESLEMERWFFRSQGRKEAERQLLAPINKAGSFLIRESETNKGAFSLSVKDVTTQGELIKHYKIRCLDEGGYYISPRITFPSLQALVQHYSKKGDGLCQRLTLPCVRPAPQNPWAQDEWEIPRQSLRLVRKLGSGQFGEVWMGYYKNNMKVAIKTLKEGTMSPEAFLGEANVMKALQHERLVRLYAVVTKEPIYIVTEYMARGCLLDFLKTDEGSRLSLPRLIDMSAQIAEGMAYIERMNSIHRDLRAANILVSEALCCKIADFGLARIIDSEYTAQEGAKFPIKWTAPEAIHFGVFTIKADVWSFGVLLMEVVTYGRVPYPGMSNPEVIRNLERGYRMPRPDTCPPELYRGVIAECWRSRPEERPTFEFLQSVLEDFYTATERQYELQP
MER, sequence (Q12866 21-999): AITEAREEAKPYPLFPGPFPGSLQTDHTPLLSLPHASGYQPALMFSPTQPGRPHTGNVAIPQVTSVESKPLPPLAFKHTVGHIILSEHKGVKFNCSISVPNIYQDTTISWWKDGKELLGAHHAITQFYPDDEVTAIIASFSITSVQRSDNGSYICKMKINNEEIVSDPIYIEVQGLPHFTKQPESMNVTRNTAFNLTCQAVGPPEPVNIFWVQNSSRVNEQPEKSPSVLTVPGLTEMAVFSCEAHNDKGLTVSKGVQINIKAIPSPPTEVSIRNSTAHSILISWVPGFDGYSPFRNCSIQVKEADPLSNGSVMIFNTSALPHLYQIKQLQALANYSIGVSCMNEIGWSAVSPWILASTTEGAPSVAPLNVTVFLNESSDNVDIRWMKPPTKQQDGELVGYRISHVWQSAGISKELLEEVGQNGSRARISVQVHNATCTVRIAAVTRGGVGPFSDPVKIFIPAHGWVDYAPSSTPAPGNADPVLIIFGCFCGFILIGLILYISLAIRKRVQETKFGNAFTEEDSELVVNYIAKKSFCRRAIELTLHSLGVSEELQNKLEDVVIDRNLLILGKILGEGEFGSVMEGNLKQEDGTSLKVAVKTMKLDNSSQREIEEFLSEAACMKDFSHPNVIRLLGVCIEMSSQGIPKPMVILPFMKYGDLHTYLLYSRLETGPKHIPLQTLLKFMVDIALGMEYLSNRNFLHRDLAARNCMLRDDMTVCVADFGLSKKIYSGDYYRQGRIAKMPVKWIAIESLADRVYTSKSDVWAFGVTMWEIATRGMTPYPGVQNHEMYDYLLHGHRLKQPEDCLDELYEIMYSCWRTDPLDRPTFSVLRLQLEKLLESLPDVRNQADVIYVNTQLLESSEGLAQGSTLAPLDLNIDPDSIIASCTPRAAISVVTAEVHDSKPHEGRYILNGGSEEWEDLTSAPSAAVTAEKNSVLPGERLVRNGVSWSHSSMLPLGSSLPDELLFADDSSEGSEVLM
BRK, sequence (Q13882 whole entry, species assumed): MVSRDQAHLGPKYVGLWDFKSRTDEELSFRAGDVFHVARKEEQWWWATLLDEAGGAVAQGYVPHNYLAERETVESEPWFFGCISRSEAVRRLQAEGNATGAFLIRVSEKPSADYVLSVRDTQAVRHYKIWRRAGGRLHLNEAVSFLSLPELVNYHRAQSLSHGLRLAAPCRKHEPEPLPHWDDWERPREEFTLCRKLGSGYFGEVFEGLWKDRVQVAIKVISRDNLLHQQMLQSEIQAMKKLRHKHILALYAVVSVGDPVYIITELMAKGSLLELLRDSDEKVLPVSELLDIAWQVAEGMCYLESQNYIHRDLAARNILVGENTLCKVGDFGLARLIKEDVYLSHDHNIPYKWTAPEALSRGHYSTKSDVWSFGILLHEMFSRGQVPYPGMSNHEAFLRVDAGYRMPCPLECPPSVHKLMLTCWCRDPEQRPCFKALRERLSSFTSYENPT
LCK, sequence (P06239 whole entry, species assumed): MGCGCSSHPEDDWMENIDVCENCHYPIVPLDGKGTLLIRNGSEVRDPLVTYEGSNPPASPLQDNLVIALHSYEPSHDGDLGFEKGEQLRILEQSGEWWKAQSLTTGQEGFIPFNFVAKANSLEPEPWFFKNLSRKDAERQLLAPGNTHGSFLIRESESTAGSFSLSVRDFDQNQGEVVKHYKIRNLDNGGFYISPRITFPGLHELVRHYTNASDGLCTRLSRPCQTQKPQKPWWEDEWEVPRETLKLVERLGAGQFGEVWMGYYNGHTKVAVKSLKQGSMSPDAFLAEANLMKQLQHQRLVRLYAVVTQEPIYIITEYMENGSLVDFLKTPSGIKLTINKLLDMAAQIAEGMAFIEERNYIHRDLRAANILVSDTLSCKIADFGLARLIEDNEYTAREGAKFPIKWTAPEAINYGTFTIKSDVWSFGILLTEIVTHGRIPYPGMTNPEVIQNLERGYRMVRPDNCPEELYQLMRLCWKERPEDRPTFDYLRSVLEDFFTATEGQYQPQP
IRR/INSRR, sequence (P14616 27-1297): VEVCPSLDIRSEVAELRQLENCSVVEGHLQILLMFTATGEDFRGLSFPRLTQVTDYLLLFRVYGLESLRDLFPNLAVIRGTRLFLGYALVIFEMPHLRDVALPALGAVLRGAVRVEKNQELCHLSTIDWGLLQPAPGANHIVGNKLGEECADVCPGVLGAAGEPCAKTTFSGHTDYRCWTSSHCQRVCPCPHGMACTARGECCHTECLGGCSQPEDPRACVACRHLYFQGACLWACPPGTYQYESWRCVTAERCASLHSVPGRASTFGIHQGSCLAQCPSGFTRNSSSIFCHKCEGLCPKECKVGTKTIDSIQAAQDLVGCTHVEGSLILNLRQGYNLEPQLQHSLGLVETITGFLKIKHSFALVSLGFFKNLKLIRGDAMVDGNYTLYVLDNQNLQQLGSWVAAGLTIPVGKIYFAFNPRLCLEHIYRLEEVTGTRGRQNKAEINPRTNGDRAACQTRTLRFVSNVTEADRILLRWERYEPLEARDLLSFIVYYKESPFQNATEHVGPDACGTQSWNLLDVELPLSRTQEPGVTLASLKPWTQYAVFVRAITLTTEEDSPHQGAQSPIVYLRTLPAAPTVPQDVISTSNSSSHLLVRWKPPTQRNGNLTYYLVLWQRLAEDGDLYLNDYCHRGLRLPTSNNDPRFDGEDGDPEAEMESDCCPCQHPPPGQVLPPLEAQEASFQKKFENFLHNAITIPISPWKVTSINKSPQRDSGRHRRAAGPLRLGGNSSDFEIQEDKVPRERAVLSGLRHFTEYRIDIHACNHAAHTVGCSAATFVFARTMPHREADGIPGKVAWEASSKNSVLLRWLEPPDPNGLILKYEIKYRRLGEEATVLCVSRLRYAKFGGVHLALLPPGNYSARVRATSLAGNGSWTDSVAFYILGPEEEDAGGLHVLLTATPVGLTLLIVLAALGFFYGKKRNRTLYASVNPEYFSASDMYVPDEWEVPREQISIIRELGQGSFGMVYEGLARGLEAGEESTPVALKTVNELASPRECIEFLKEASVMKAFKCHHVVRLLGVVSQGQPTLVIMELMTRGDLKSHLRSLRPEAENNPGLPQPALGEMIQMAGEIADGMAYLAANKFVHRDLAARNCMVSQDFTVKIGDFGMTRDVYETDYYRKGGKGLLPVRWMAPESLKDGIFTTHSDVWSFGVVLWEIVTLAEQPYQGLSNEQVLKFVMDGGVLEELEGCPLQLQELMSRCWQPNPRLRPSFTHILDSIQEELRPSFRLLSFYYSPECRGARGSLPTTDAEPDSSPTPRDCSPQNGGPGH
c-Src, sequence (P12931 whole entry, species assumed): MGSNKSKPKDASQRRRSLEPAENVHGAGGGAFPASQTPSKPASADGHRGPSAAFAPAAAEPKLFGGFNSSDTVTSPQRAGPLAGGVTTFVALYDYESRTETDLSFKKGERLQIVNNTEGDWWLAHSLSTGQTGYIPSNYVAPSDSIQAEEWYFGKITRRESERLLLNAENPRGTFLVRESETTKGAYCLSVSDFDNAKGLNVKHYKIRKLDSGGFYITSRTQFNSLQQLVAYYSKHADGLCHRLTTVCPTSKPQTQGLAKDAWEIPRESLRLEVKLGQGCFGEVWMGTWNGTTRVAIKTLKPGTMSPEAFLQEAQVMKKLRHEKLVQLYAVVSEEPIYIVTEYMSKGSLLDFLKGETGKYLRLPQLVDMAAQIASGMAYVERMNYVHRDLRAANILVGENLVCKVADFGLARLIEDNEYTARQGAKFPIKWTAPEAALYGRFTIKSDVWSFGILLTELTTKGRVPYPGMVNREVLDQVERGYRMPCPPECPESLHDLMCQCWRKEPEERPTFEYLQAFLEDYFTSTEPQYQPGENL

For the compound `COCCOc1cc2ncnc(Oc3ccc(NC(=O)c4c5n(n(-c6ccc(F)cc6)c4=O)CCCC5)cc3F)c2cc1OCCOC` [DC621044, N-(4-((6,7-bis(2-methoxyethoxy)quinazolin-4-yl)oxy)-3-fluorophenyl)-1-(4-fluorophenyl)-2-oxo-1,2,4,5,6,7-hexahydropyrazolo[1,5-a]pyridine-3-formamide], the inhibition at 0.05 µM on IRR/INSRR (the first time) came out at 25.8%; against IRR/INSRR (the second time) it was 28.3%; at FGR (the first time), 41.2%; at FGR (the second time), 41.2%; against MER (the first time), 99.4%; against MER (the second time), 99.5%. Also, the inhibition at 0.05 µM at BRK (the first time) was 18.9%; at BRK (the second time), 19.4%; against c-Src (the first time), 20%; at c-Src (the second time) it was 21%; on AXL (the first time), 94.6%; against AXL (the second time), 95.2%. Besides, the inhibition at 0.05 µM on EPHA6 (the first time) worked out at 57.3%; on EPHA6 (the second time), 57.8%; against MLK2/MAP3K10 (the first time), 22.4%; at MLK2/MAP3K10 (the second time), 23.9%; on BLK (the first time), 29.5%; at BLK (the second time) it was 29.9%. In addition, the inhibition at 0.05 µM stood at 52.8% against LCK (the first time), 53.1% on LCK (the second time), 17.1% against FRK/PTK5 (the first time) and 17.7% against FRK/PTK5 (the second time).
